Measurements taken from PubChem BioAssay AID1259333 (Broad Institute, 2017).
Active and inactive are the calls of the source. The rule behind the calls is not given here; tested in parental BL2 cells.

Assay: cell cytotoxicity, dose response, cytotoxicity control, CellTiter-Glo (AID 1259333);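 note: 0% = vehicle neutral controls and -100% = reference inhibitor positive controls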
Conditions: cytotoxicity, CellTiter-Glo ATP luminescence; at 3 µM (top of the series)

SMILES | activity change, negative = cytotoxicity
O=C(Nc1ccccc1F)N1C[C@@H]2N[C@H](C1)C2c1ccc(/C=C/c2ccccc2)cc1 (stereo not given in full) | 21.6% (inactive)

Same assay, conditions: cytotoxicity, CellTiter-Glo ATP luminescence; at 3.5 µM (top of the series)

SMILES | activity change, negative = cytotoxicity
C[C@@H]1CCCCO[C@@H](CN(C)C(=O)C2CCCCC2)[C@@H](C)CN([C@H](C)CO)C(=O)c2cc(NS(=O)(=O)c3ccccc3)ccc2O1 | 22.5% (inactive)
CC(C)(C)c1cc(/C=C(\C#N)C(N)=S)cc(C(C)(C)C)c1O | 26.8% (inactive)
Cc1ccccc1NC(=O)c1nc(S(C)(=O)=O)ncc1Cl | 64.5% (inactive)
C[C@@H]1CCCCO[C@@H](CN(C)CC2CCCCC2)[C@@H](C)CN([C@@H](C)CO)C(=O)c2cc(NC(=O)Nc3ccc(C(F)(F)F)cc3)ccc2O1 | 15% (inactive)
COc1cccc(S(=O)(=O)N(C)C[C@H]2OCc3ccccc3-c3c(n(C)c4ccccc34)C(=O)N([C@@H](C)CO)C[C@H]2C)c1 | 15.7% (inactive)

Same assay, conditions: cytotoxicity, CellTiter-Glo ATP luminescence; at 10 µM (top of the series)

SMILES | activity change, negative = cytotoxicity
Oc1ccc2c(c1)OCC1(O)Cc3cc(O)c(O)cc3C21 (stereo not given) | 8.98% (inactive)
COc1ccc(S(=O)(=O)N(C)C[C@@H]2Oc3ccc(NC(=O)Nc4ccc(C(F)(F)F)cc4)cc3C(=O)N([C@H](C)CO)C[C@H]2C)cc1 | 22.7% (inactive)
CC(C)OC(=O)CC1C(=O)NCCN1C(=S)NC(=O)c1cccs1 (stereo not given) | 19.9% (inactive)
C[C@H]1CCCCO[C@H](CN(C)Cc2ccc(C(F)(F)F)cc2)[C@@H](C)CN([C@@H](C)CO)C(=O)c2cc(NC(=O)Nc3cccc4ccccc34)ccc2O1 | 29.1% (inactive)
CC1CC(C)C(=O)C(C(CC2CC(=O)NC(=O)C2)OC(=O)CC(=O)c2ccccc2)C1 (stereo not given) | 11.5% (inactive)
CC(C)(C)NCC(=Cc1ccccc1)C(=O)c1ccccc1 | 103% (inactive)
COc1ccc(S(=O)(=O)Nc2ccc3c(c2)C(=O)N([C@H](C)CO)C[C@@H](C)[C@@H](CN(C)Cc2ccc(C(F)(F)F)cc2)OCCCC[C@@H](C)O3)cc1 | 4.86% (inactive)
Cc1cc(C)c2c(c1)SC1=NC(c3ccccc3)(C(F)(F)F)NC(=O)N12 (stereo not given) | 30.7% (inactive)
COc1cccc(S(=O)(=O)N(C)C[C@H]2OCc3ccccc3-c3c(n(C)c4ccccc34)C(=O)N([C@@H](C)CO)C[C@@H]2C)c1 | 28.3% (inactive)
Cc1noc(C)c1S(=O)(=O)Nc1ccc2c(c1)C(=O)N([C@H](C)CO)C[C@@H](C)[C@H](CN(C)C(=O)Nc1cccc3ccccc13)OCCCC[C@@H](C)O2 | 33.4% (inactive)
COc1ccc(CN2CC3(CN(C(=O)Cc4ccccc4)C3)c3c([nH]c4cc(OC)ccc34)[C@H]2CO)cc1 | 21.8% (inactive)
C[C@@H]1CN([C@@H](C)CO)C(=O)Cc2cc(NS(=O)(=O)c3ccc(F)cc3)ccc2O[C@H]1CN(C)Cc1ccc(C(F)(F)F)cc1 | 20.6% (inactive)
O=C(Nc1nnc(C2CC2)s1)C1CC(=O)N(c2ccc3c(c2)OCCO3)C1 (stereo not given) | 52.3% (inactive)
N#Cc1cccc(-c2ccc([C@@H]3[C@@H]4CN(S(=O)(=O)c5ccc(-c6ccccc6)cc5)C[C@H]3N4)cc2)c1 | 25.4% (inactive)
Oc1cc2c(cc1C(c1ccc(Br)cc1)N1CCCC1)OCO2 (stereo not given) | 7.99% (inactive)
NS(=O)(=O)c1nn2cc(-c3ccccc3)nc2s1 | 65.7% (inactive)
COC(=O)c1ccc2c(=O)[nH]c(COC(=O)c3c(-c4ccccc4)noc3C)nc2c1 | 11% (inactive)
CC(OC(=O)c1cc(Br)ccc1O)C(=O)Nc1ccc(S(=O)(=O)N2CCCC2)cc1 (stereo not given) | 47% (inactive)
CC(=O)Nc1nc2nc(-c3ccccc3)cc(-c3ccccc3)n2n1 | 47.9% (inactive)
Cc1nc(C)c(C(=O)Nc2ncc([N+](=O)[O-])s2)o1 | 29.6% (inactive)
CC(=O)NC12CC3CC(C1)CC(C(=O)OCC(=O)c1ccc4c(c1)OCCO4)(C3)C2 | 20.6% (inactive)
COc1ccc(C=Cc2ccc3ccccc3n2)c(OC)c1 | 26.9% (inactive)

SMILES | activity change, negative = cytotoxicity
C[C@@H]1CN([C@H](C)CO)C(=O)c2c(c3ccccc3n2C)-c2ccccc2CO[C@H]1CN(C)C(=O)Nc1ccccc1C(F)(F)F | -16.3% (inactive)
CC(=O)[C@]1(O)Cc2c(O)c3c(c(O)c2[C@@H](O[C@H]2C[C@H](N)[C@H](O)[C@H](C)O2)C1)C(=O)c1ccccc1C3=O | -5.56% (inactive)
O=S(c1ccccc1O)S(=O)c1ccccc1O (stereo not given) | 40.7% (inactive)
O=C(NC(=S)/C(=C1\CCCCCN1)[N+](=O)[O-])c1ccccc1 | 16.4% (inactive)
COc1cccc(S(=O)(=O)N(C)C[C@@H]2OCc3ccccc3-c3c(n(C)c4ccccc34)C(=O)N([C@H](C)CO)C[C@H]2C)c1 | 9.22% (inactive)
CC1(C)C(=O)C=C[C@@]2(C)C1C=C[C@]1(C)C2CC[C@@]2(C)[C@H](c3ccoc3)OC(=O)[C@H]3O[C@]321 (stereo not given in full) | 15.6% (inactive)
O=C1C[C@H](c2ccccc2)C(=O)N[C@@H](c2ccccc2)C/C=C\C[C@@H](c2ccccc2)N1 | 72.2% (inactive)
COc1cccc2c1C(=O)c1c(O)c3c(c(O)c1C2=O)C[C@@](O)(C(C)=O)C[C@@H]3O[C@H]1C[C@H](N)[C@H](O)[C@H](C)O1 | 13.8% (inactive)
O=c1cc(-c2ccc(O)cc2)oc2ccc3ccccc3c12 | 20.1% (inactive)
Oc1c(Cl)cc(Cl)cc1Sc1cc(Cl)cc(Cl)c1O | 11% (inactive)
O=C(C[C@@H]1C[C@H]2c3cc(NC(=O)Nc4ccc(C(F)(F)F)cc4)ccc3O[C@H]2[C@H](CO)O1)NCc1cc(F)ccc1F | 31.2% (inactive)
CC(=O)Nc1ccc(S(=O)(=O)c2ccc(N)cc2)cc1 | 13.9% (inactive)
Oc1cc(O)cc(/C=C/c2ccc(O)c(O)c2)c1 | 129% (inactive)
Cc1cccc(-c2ccc(C3[C@@H]4CN(C(=O)Nc5ccc(C(F)(F)F)cc5)C[C@H]3N4)cc2)c1 (stereo not given in full) | 26.3% (inactive)
Cc1ccc(-c2cc(C(=O)N(C)CC(=O)Nc3ccccc3Br)c3ccccc3n2)o1 | 130% (inactive)
CCN1C(=O)C(CC(=O)Nc2ccc(F)cc2)N(Cc2ccco2)C1=S (stereo not given) | 18% (inactive)
O=C(NCc1ccccn1)C1CCCN(S(=O)(=O)c2ccccc2)C1 (stereo not given) | 44.9% (inactive)
COc1ccc2c3c(n(C)c2c1)[C@H](CO)N(C(=O)Nc1ccc(F)cc1)CC31CCN(C(=O)Nc2ccc(F)cc2F)CC1 | 29.2% (inactive)
COc1ccc(C#Cc2ccc([C@@H]3[C@H](CO)N4CCCCN(C(=O)Nc5cccc(F)c5)C[C@@H]34)cc2)cc1 | 50.4% (inactive)
CC1(C)C(=O)C=C[C@@]2(C)C1C(=O)C(=O)[C@]1(C)C2CC[C@@]2(C)[C@H](c3ccoc3)C[C@H]3O[C@]321 (stereo not given in full) | 161% (inactive)
O=C(COc1cccnc1[N+](=O)[O-])c1ccc(Cl)s1 | 33.6% (inactive)
COc1ccc(S(=O)(=O)Nc2ccc3c(c2)C(=O)N([C@@H](C)CO)C[C@@H](C)[C@@H](CN(C)Cc2ccc(C(F)(F)F)cc2)OCCCC[C@@H](C)O3)cc1 | -20.6% (inactive)

SMILES | activity change, negative = cytotoxicity
CC1=CC(=O)c2ccccc2C1=O | 36.2% (inactive)
Cc1ccc(N2CC(C(=O)Nc3nccs3)CC2=O)cc1Cl (stereo not given) | 22.3% (inactive)
Cc1ccccc1C(=O)N1CCC(C(=O)Nc2nc3ccc(F)cc3s2)CC1 | 18.4% (inactive)
COc1ccc(S(=O)(=O)N(C)C[C@H]2Oc3ccc(NC(=O)Nc4ccc(C(F)(F)F)cc4)cc3C(=O)N([C@@H](C)CO)C[C@H]2C)cc1 | 24.4% (inactive)
CCc1cnc(N2[C@H](C#N)[C@H](c3ccc(C#Cc4ccccc4F)cc3)[C@H]2CO)s1 | 12.3% (inactive)
O=C(C[C@@H]1CC[C@H]2[C@@H](COC[C@@H](O)CN2Cc2cc(F)ccc2F)O1)NCc1ccc(Oc2ccccc2)cc1 | 14.2% (inactive)
Cc1nc(-c2ccc(OCC(C)C)c(C#N)c2)sc1C(=O)O | 23.3% (inactive)
CC1CCCC=CC2CC(OC(=O)CN(C)C)CC2C(O)C=CC(=O)O1 (stereo not given) | 53.7% (inactive)
O=C(Cc1ccccc1)N1CC[C@@H]2[C@H]1c1cc(-c3cccc(F)c3)ccc1N[C@@H]2CO | 8.92% (inactive)
O=C1C(Br)=C(c2ccccc2)C(c2ccccc2)=C1c1ccccc1 | -18.2% (inactive)
CCCNC(=O)N1[C@H](CO)[C@H](c2ccc(-c3cccc(OC)c3)cc2)[C@@H]1C#N | 27% (inactive)
c1cncc(C2=NCCC2)c1 | 36.6% (inactive)
COc1ccc2cc(-c3cc(C(=O)O)c4ccccc4n3)ccc2c1 | 6.64% (inactive)
CC(=NNC(=S)N1CC2CCC(CC2)C1)c1nccs1 | 126% (inactive)
Cn1cnc(S(=O)(=O)N2C[C@@H]3N[C@H](C2)C3c2ccc(-c3ccccc3F)cc2)c1 (stereo not given in full) | 36.7% (inactive)
Cc1ccc(-c2ccccc2[C@H]2[C@@H](C#N)N(c3ncc(-c4ccccc4)s3)[C@@H]2CO)cc1 | 47.4% (inactive)
N#Cc1cccc(-c2ccc(C3[C@@H]4CN(C(=O)Nc5ccc(C(F)(F)F)cc5)C[C@H]3N4)cc2)c1 (stereo not given in full) | -11.5% (inactive)
C[C@H]1CN([C@@H](C)CO)C(=O)c2c(c3ccccc3n2C)-c2ccccc2CO[C@H]1CN(C)C(=O)Nc1ccccc1C(F)(F)F | -4.57% (inactive)
Cc1ccc(OC(=O)N(C)C[C@@H]2OCc3ccccc3-c3c(n(C)c4ccccc34)C(=O)N([C@@H](C)CO)C[C@H]2C)cc1 | 5.02% (inactive)
CCN1C(=O)C(CC(=O)Nc2ccc(OC)cc2)N(CCc2ccc(F)cc2)C1=S (stereo not given) | 24.7% (inactive)
